Assay results: patent EP0009777A1, “Retinoic- and 7,8-dehydro-retinoic-acid-N-(carboxy)phenyl amides, process for their preparation and pharmaceutical compositions containing them” (BASF Aktiengesellschaft, priority 1978, dated 1980)

Each molecule was assayed on Tracheenknorpelgewebe vom Hamster (assay: Toxicity on hamster tracheal cartilage tissue in culture (Sporn et al. 1976)). Conditions: result in words; test not named, presumably the tracheal cartilage culture.
Format: cell-based
Excerpt: (§1) Nachteilig an diesen bekannten Retinsäureamiden ist ihre geringe therapeutische Breite. Die Substanzen zeigen entweder eine vergleichsweise geringe Aktivität oder wie wirken schon in vergleichsweise geringen Dosen toxisch. So kann beispielsweise Retinsäure-N-etylamid schon in 2 x 10-^9 molaren Konzentrationen die durch Vitamin A-Hypovitaminose induzierte Keratinisierung von Hamster-Tracheen--Gewebe wieder rückgängig machen. Die Methodik hierzu kann G.H. Clamon et al Nature 250; 64-66 (1974) oder M.B. Sporn et al Nature 253, 47-50 (1975)) entnommen werden. Die Keratinisierung wird als praekanzerotischer Prozeß angesehen. Das Retinsäure-N-ethylamid wirkt bereits in einer Konzentration von 9 x 10-^7 molar toxisch auf Tracheenknorpelgewebe vom Hamster in Kultur, wie von M.B. Sporn et al in Nature 263, 110-113 (1976) beschrieben ist.
`CCOC(=O)c1ccc(NC(=O)/C=C(C)/C=C/C=C(C)/C=C/C2=C(C)CCCC2(C)C)cc1` [Retinsäure-N-(p-ethoxycarbonyl)-phenylamid, reference compound] was tested, and the “celluläre Toxizität” value was “geringe celluläre Toxizität”.
For `CC1=C(/C=C/C(C)=C/C=C/C(C)=C/C(=O)Nc2ccc(C(=O)O)cc2)C(C)(C)CCC1` [all-E-Retinsäure-N-(p-carboxy)-phenylamid], the “celluläre Toxizität” value was “ebenso geringe Toxizität wie der entsprechende Ethylester”.

These molecules were tested on Hamster-Tracheen-Gewebe (assay: Reversal of keratinisation induced by vitamin A deficiency in hamster tracheal tissue (organ culture; methods of Clamon et al. 1974, Sporn et al. 1975)). Conditions: Mesocricetus auratus, keratinisation induced by vitamin A hypovitaminosis, read-out: Konzentration, in der die Keratinisierung von Hamster-Tracheen-Gewebe rückgängig gemacht / geheilt wird (wirksam).
Format: cell-based
Excerpt: as §1
Bei der Prophylaxe von Praekanzerosen an keratinisiertem Hamster-Tracheen-Gewebe ist die freie Säure jedoch noch in 10^-10 molarer Konzentration wirksam und damit wesentlich aktiver als der Ethylester.
`CCNC(=O)/C=C(C)/C=C/C=C(C)/C=C/C1=C(C)CCCC1(C)C` [Retinsäure-N-ethylamid, reference compound] was tested, and the minimal effective concentration was 0.002 µM.
With `CCOC(=O)c1ccc(NC(=O)/C=C(C)/C=C/C=C(C)/C=C/C2=C(C)CCCC2(C)C)cc1` [Retinsäure-N-(p-ethoxycarbonyl)-phenylamid, reference compound] the minimal effective concentration was 0.01 µM.
`CC1=C(/C=C/C(C)=C/C=C/C(C)=C/C(=O)Nc2ccc(C(=O)O)cc2)C(C)(C)CCC1` [all-E-Retinsäure-N-(p-carboxy)-phenylamid] showed a minimal effective concentration of 0.0001 µM.

Same assay, conditions: keratinisation induced by vitamin A hypovitaminosis
In the case of `CC1=C(C#C/C(C)=C/C=C/C(C)=C/C(=O)Nc2ccc(C(=O)O)cc2)C(C)(C)CCC1` [all-E-7,8-Dehydro-retinsäure-N-(p-carboxy)-phenylamid], the “Konzentration, in der die Keratinisierung von Hamster-Tracheen-Gewebe rückgängig gemacht / geheilt wird (wirksam)” value is reported as “Entsprechende Resultate”.
For `CC1=C(/C=C/C(C)=C/C=C/C(C)=C\C(=O)Nc2ccc(C(=O)O)cc2)C(C)(C)CCC1` [13-Z-Retinsäure-N-(p-carboxy)-phenylamid], the “Konzentration, in der die Keratinisierung von Hamster-Tracheen-Gewebe rückgängig gemacht / geheilt wird (wirksam)” value was “Entsprechende Resultate”.
For `CC1=C(/C=C/C(C)=C/C=C/C(C)=C/C(=O)Nc2cccc(C(=O)O)c2)C(C)(C)CCC1` [all-E-Retinsäure-N-(m-carboxy)-phenylamid], the “Konzentration, in der die Keratinisierung von Hamster-Tracheen-Gewebe rückgängig gemacht / geheilt wird (wirksam)” value was “Entsprechende Resultate”.
In the case of `CC1=C(C#C/C(C)=C/C=C/C(C)=C/C(=O)Nc2ccccc2C(=O)O)C(C)(C)CCC1` [all-E-7,8-Dehydro-retinsäure-N-(o-carboxy)-phenylamid], the “Konzentration, in der die Keratinisierung von Hamster-Tracheen-Gewebe rückgängig gemacht / geheilt wird (wirksam)” value is reported as “Entsprechende Resultate”.
In the case of `CC1=C(/C=C/C(C)=C/C=C/C(C)=C\C(=O)Nc2cccc(C(=O)O)c2)C(C)(C)CCC1` [13-Z-Retinsäure-N-(m-carboxy)-phenylamid], the “Konzentration, in der die Keratinisierung von Hamster-Tracheen-Gewebe rückgängig gemacht / geheilt wird (wirksam)” value is reported as “Entsprechende Resultate”.
With `CC1=C(/C=C/C(C)=C/C=C/C(C)=C/C(=O)Nc2ccccc2C(=O)O)C(C)(C)CCC1` [all-E-Retinsäure-N-(o-carboxy)-phenylamid] the “Konzentration, in der die Keratinisierung von Hamster-Tracheen-Gewebe rückgängig gemacht / geheilt wird (wirksam)” value was “Entsprechende Resultate”.
For `CC1=C(/C=C/C(C)=C/C=C/C(C)=C\C(=O)Nc2ccccc2C(=O)O)C(C)(C)CCC1` [13-Z-Retinsäure-N-(o-carboxy)-phenylamid], the “Konzentration, in der die Keratinisierung von Hamster-Tracheen-Gewebe rückgängig gemacht / geheilt wird (wirksam)” value was “Entsprechende Resultate”.
With `CC1=C(C#C/C(C)=C/C=C/C(C)=C/C(=O)Nc2cccc(C(=O)O)c2)C(C)(C)CCC1` [all-E-7,8-Dehydro-retinsäure-N-(m-carboxy)-phenylamid] the “Konzentration, in der die Keratinisierung von Hamster-Tracheen-Gewebe rückgängig gemacht / geheilt wird (wirksam)” value was “Entsprechende Resultate”.
